The results in this text go back to patent US20200239530A1, “COMPOUNDS AND METHODS OF MODULATING PROTEIN DEGRADATION” (Vividion Therapeutics, Inc., priority 2017, published 2020).

Common to all, as to experiment: Cysteine liganding, probe competition
Holding throughout (format): binding

Assay [1] has as its target T1, UBE2O (E3-independent) E2 ubiquitin-conjugating enzyme (Homo sapiens, UniProt Q9C0C9).
T1 construct: Cells were resuspended in cold PBS on ice and sonicated with a probe sonicator to achieve lysis; endogenous in cells
T1 sequence (Q9C0C9 1-1292): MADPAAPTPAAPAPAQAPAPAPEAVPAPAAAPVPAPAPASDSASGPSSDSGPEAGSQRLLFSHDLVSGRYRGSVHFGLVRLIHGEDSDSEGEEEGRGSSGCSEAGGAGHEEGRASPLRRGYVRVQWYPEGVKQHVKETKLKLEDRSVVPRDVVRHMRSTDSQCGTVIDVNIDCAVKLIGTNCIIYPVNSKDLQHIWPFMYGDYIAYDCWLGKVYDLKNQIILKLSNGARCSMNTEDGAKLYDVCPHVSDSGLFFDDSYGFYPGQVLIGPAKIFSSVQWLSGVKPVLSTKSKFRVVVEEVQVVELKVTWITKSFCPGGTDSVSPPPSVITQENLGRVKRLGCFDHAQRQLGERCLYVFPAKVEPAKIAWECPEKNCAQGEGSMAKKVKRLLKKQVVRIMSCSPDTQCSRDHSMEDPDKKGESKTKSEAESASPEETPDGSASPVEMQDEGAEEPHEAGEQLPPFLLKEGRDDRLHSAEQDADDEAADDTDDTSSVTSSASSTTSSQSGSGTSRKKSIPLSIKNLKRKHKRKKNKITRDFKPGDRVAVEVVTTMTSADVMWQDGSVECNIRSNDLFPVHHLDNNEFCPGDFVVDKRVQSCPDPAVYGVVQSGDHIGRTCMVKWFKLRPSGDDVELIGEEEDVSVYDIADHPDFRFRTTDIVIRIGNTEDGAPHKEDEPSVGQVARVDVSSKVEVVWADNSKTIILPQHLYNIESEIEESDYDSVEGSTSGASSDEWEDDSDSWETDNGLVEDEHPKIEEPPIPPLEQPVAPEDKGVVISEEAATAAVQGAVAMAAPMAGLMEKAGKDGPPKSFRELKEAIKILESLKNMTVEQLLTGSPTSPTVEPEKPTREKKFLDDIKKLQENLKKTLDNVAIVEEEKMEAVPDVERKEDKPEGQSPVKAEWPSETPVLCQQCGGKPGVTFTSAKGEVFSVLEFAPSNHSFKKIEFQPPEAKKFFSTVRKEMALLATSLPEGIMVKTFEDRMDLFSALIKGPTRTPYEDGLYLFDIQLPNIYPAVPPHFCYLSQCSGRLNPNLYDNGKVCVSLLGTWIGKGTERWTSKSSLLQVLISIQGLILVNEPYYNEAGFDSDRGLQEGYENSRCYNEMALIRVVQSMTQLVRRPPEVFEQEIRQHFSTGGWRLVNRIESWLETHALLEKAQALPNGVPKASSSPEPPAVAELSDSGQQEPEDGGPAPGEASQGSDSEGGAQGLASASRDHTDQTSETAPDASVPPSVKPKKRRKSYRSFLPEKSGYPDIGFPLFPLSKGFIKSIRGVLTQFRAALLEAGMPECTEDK
The method in brief: (§1)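 Probe competition in native proteome: 5 mg/ml lysate, compound 1 hr 25° C, then desthiobiotin iodoacetamide (10 mM stock) 1 hr 25° C; acetone ppt, urea/DTT reduction, iodoacetamide alkylation, trypsin, streptavidin pull-down.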

Assay [2] addresses T2, BACH2 Transcription regulator protein BACH2 (Homo sapiens, UniProt Q9BYV9).
T2 construct: Cells were resuspended in cold PBS on ice and sonicated with a probe sonicator to achieve lysis; endogenous in cells
In outline:
as §1

Assay [3] deals with T3, PRMT5 Protein arginine N-methyltransferase 5 (Homo sapiens, UniProt O14744).
T3 construct: Cells were resuspended in cold PBS on ice and sonicated with a probe sonicator to achieve lysis; endogenous in cells
T3 sequence (O14744 whole entry): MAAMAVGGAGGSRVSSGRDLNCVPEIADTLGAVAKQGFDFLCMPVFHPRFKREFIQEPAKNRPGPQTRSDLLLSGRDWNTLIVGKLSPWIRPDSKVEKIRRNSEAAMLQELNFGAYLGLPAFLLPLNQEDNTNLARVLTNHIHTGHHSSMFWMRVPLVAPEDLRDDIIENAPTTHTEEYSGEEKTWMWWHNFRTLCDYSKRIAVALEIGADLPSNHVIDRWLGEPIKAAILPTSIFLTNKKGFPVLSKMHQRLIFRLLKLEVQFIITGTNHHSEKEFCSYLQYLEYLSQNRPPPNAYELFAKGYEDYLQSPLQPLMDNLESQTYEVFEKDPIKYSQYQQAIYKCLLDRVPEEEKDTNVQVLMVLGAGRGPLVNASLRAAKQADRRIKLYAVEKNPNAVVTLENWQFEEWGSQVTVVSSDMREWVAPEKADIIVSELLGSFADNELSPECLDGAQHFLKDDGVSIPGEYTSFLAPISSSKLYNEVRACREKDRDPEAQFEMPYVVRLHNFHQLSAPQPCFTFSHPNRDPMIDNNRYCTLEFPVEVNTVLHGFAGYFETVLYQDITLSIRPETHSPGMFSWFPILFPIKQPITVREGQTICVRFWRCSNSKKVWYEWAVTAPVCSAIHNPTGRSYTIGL
T3 sequence (Q9BQA1 whole entry partner): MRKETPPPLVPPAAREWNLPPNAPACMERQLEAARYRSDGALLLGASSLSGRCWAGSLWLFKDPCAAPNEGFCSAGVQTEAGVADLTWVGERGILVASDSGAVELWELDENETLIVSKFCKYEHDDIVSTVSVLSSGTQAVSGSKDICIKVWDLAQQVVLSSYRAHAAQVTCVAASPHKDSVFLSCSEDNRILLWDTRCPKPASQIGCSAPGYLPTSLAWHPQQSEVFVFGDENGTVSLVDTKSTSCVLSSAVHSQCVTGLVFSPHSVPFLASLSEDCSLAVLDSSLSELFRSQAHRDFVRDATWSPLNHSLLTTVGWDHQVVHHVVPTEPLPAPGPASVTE
The method in brief: as §1

T2 sequence (Q9BYV9 whole entry): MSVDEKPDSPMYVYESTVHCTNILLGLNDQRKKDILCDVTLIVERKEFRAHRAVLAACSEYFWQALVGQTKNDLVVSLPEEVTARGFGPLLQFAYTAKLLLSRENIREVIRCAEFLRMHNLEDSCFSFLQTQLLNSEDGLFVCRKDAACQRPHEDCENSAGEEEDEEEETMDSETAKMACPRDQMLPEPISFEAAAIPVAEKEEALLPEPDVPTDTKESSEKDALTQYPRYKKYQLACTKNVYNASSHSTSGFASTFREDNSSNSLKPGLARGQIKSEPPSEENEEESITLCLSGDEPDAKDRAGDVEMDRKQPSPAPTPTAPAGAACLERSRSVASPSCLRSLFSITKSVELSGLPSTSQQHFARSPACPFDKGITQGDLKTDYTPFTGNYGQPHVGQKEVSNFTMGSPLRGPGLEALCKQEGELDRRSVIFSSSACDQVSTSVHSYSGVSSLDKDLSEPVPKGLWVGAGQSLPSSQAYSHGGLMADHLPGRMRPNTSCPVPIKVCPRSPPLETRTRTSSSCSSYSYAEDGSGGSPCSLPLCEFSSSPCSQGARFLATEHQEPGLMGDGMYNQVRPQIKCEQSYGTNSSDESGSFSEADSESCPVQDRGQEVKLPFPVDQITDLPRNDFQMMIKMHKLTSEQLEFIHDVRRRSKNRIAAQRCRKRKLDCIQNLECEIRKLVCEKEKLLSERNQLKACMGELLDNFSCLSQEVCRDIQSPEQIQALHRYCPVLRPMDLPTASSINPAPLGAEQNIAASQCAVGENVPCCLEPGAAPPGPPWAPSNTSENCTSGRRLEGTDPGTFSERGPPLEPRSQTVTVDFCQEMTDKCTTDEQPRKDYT

Take `O=C(CCl)Nc1cc(C(F)(F)F)cc(C(F)(F)F)c1` [KBO3]: the Liganded entry in assay [1] (UBE2O Res# 370, uniprot Q9C0C9) is “YES”. Moreover, the “100 Max” value in assay [2] (uniprot Q9BYV9) worked out at 25.4; in assay [3] (uniprot O14744, in % (unit assumed)), 16.62. The values for the 100 ave in assay [2] (uniprot Q9BYV9) and in assay [3] (uniprot O14744) were 17.2 and 16.62, respectively. The 500 ave in assay [2] (uniprot Q9BYV9) is 62.8; in assay [3] (uniprot O14744), 45.47. Further, the 500 Max in assay [2] (uniprot Q9BYV9, unit assumed) stood at 62.8%; in assay [3] (uniprot O14744), 45.47.
Turning to `COc1ccc2c(c1)CCCN2C(=O)CCl` [KB02], the Liganded entry in assay [1] (UBE2O Res# 370, uniprot Q9C0C9) is “YES”; in assay [1] (UBE2O Res# 400, uniprot Q9C0C9) it was “YES”; in assay [1] (UBE2O Res# 910, uniprot Q9C0C9) it was “YES”; in assay [1] (UBE2O Res# 913, uniprot Q9C0C9), “YES”; in assay [2] (BACH2 Res# 370, uniprot Q9BYV9) it was “YES”; in assay [3] (PRMT5 Res# 278, uniprot O14744), “YES”.
